The results in this text go back to article PMC3049263 (Bioorganic & medicinal chemistry, 2010).

Assay [1] relates to recombinant HIV-1YU2. It counts as cell-based. Conditions: CD4-deficient Cf2Th-CCR5 cells.
Assay [2] deals with D368A mutant HIV-1YU2 envelope glycoproteins. The class given is cell-based. Conditions: vestibule of the Phe 43 cavity.
The test system of assay [3] is S375A mutant HIV-1YU2 envelope glycoproteins. It counts as cell-based. Conditions: base of the Phe 43 cavity.
In assay [4] the test system is wild-type HIV-1YU2 virus. The class given is cell-based. To be noted: CD4-expressing Cf2Th-CCR5 target cells.
Assay [5] has as its target gp120 (Human immunodeficiency virus type 1 group M subtype B, UniProt P35961). Nature of the assay: Isothermal titration calorimetry binding to gp120.

Where two headings read alike, the source gives them in different places.

Consider `C[C@@H]1CCC[C@H](C)N1CCNC(=O)C(=O)Nc1ccc(Cl)c(F)c1` [Compound 50], for which the “Enhancement of viral infectivity (in words)” value (“Enhancement” for short) in assay [1] was “ineffective at enhancing viral infectivity”. Moreover, the “Effect of D368A mutation on analogue binding (in words)” value in assay [2] is listed as “negative effect”. Also, the “Effect of S375A mutation on inhibition of CD4-gp120 binding (in words)” value in assay [3] is “increases the ability of these analogues to inhibit CD4-gp120 binding”.

As to `CC1(C)CC(NC(=O)C(=O)Nc2ccc(Cl)c(F)c2)CC(C)(C)C1` [Compound 17], in assay [4], the “Inhibition of CD4-gp120 binding / viral infection (in words)” value is “failed to exhibit inhibition”. As to `O=C(Nc1ccc(Cl)c(F)c1)C(=O)NC1CCNC2(CCC2)C1` (stereo not shown) [Compound 49], the “Enhancement” value in assay [1] is on record as “activation of viral infectivity similar to 1”. Moreover, the “Effect of D368A mutation on analogue binding (in words)” value in assay [2] is “negative effect”. Moreover, the “Inhibition of CD4-gp120 binding / viral infection (in words)” value in assay [4] is recorded as “maintained inhibition”. The “gp120 binding affinity (in words)” value in assay [5] (ITC) is listed as “sub-micromolar binding affinity”. The “Effect of S375A mutation on inhibition of CD4-gp120 binding (in words)” value in assay [3] is given as “increases the ability of these analogues to inhibit CD4-gp120 binding”. On to `CC1(C)C2CCC1(C)C(NC(=O)C(=O)Nc1ccc(Cl)c(F)c1)C2` (stereo not shown) [Compound 18], for which, in assay [4], the “Inhibition of CD4-gp120 binding / viral infection (in words)” value is on record as “failed to exhibit inhibition”. With `CC(C)N1CCCCC1CCNC(=O)C(=O)Nc1ccc(Cl)c(F)c1` (stereo not shown) [Compound 25], in assay [4], the “Inhibition of CD4-gp120 binding / viral infection (in words)” value was “improved IC50”. `CC(C)N1CCC(NC(=O)C(=O)Nc2ccc(Cl)c(F)c2)CC1` [Compound 11]: the “gp120 binding affinity (in words)” value in assay [5] (ITC) is “retention of binding affinity”. As for `O=C(NCC1NCCc2ccccc21)C(=O)Nc1ccc(Cl)c(F)c1` (stereo not shown) [Compound 39], in assay [1], the “Enhancement” value is recorded as “decreased enhancement of viral infectivity”. On the same count and under the same terms, the same measure for `O=C(NCC1CCCN(CCO)C1)C(=O)Nc1ccc(Cl)c(F)c1` (stereo not shown) [Compound 51]: “ineffective at enhancing viral infectivity”. Turning to `CC1(C)CC(NC(=O)C(=O)Nc2ccc(Cl)c(F)c2)CC(C)(C)O1` [Compound 19], in assay [5] (ITC), the “gp120 binding affinity (in words)” value is recorded as “reduced binding”.

Consider `CCN1CCCC1CNC(=O)C(=O)Nc1ccc(Cl)cc1` (stereo not shown) [Compound 42], for which the “Inhibition of CD4-gp120 binding / viral infection (in words)” value in assay [4] is “inhibited CD4-gp120 binding”. Take `CC1(C)CC(NC(=O)C(=O)Nc2ccc(Cl)c(F)c2)CC(C)(C)[N+]1(C)[O-]` (stereo not shown) [Compound 20]: the “gp120 binding affinity (in words)” value in assay [5] is “reduced binding”. `CCN1CCCC1CNC(=O)C(=O)Nc1ccc(Cl)c(F)c1` (stereo not shown) [Compound 43]: the “Enhancement” value in assay [1] was “without the accompanying enhancement of viral infectivity”. Further, the “gp120 binding affinity (in words)” value in assay [5] (ITC) was “binding affinity comparable to 41”.
